Source: article PMC8812913 (PLoS Neglected Tropical Diseases, 2022)
Read-outs that look alike come from different tables or passages of the source.

Legend:
[1] = cited from earlier work
[2] = cited from earlier work; remark: listed apart in the source
[3] = male, Syrian golden, hamster, in vivo, po, 500 mg/kg
in vivo [4] = conditions: male, Syrian golden, hamster, po, 500 mg/kg
[5] = male, Syrian golden, hamster, in vivo, po, 500 mg/kg; remark: listed apart in the source
in vivo [6] = conditions: male, Syrian golden, hamster, po, 500 mg/kg; remark: listed apart in the source
Yellow fever virus (YFV) [7] = conditions: read-out: EC50, 50% inhibition of the virus-induced cytopathic effect (CPE); cited from earlier work
Yellow fever virus (YFV) [8] = conditions: read-out: EC90 in reducing viral yield; cited from earlier work
HCV clinical isolates = conditions: cited from earlier work

| SMILES | Concentration measured in brain tissue [3] | MRT last (in vivo [4]; MRT0-last) | Tmax (in vivo [4]) | Plasma concentration at 12 h post dose (Ctrough) [5] | Tmax [3] | AUC(0-t) (in vivo [6]) | Cmax (in vivo [6]) | MRT last (in vivo [6]) | Tmax (in vivo [6]) | further results |
| --- | --- | --- | --- | --- | --- | --- | --- | --- | --- | --- |
| CNc1nc(N)nc2c1ncn2C1OC(COP(=O)(NC(C)C(=O)OC(C)C)Oc2ccccc2)C(O)C1(C)F (stereo not drawn) [AT-752] |  |  |  |  |  |  |  |  |  | Alive/total (21 days): 5/5; ALT (hamster, in vivo): 53 ± 5 IU/L; Toxicity, as evidenced by weight loss or mortality (hamster, in vivo, 1000 mg/kg): no toxicity; Half-life in rodent plasma [1]: < 3 min; Half-life in primate plasma [2]: > 4.67 h |
| C[C@@]1(F)[C@H](O)[C@@H](COP(=O)(O)OP(=O)(O)OP(=O)(O)O)O[C@H]1n1cnc2c(=O)[nH]c(N)nc21 [AT-9010] | no AT-9010 detected | 11 h | 8 h |  |  |  |  |  |  | MRT last (in vivo [4]; Mean residence times (MRT0-last) across tissues): 7 to 11 h |
| CNc1nc(N)nc2c1ncn2C1OC(COP(=O)(O)NC(C)C(=O)O)C(O)C1(C)F (stereo not drawn) [AT-551] |  | 8.5 h |  | 3400 ± 1700 nM | 2.0 h | 114 ± 22.1 µM·h | 52400 ± 23500 nM | 4.6 ± 1.5 h | 0.5 h |  |
| CNc1nc(N)nc2c1ncn2C1OC(COP(=O)(NC(C)C(=O)OC(C)C)Oc2ccccc2)C(O)C1(C)F (stereo not drawn) [AT-281] | no AT-281 was detected | 4.2 h | 2 h | 6 ± 2 nM |  | 1.7 ± 0.5 µM·h | 600 ± 200 nM | 3.4 ± 1 h | 2 ± 1.7 h | Concentration measured in lung tissue [3]: no AT-281 was detected; MRT0-last [3]: 4.5 h; EC50 (Yellow fever virus (YFV) [7]): 310 nM; EC90 (Yellow fever virus (YFV) [8]): 260 nM |
| C[C@@]1(F)[C@H](O)[C@@H](CO)O[C@H]1n1cnc2c(=O)[nH]c(N)nc21 [AT-273] |  | 11.6 h |  | 600 ± 100 nM | 8.0 h | 10.8 ± 1.6 µM·h | 900 ± 100 nM | 9.8 ± 1.1 h | 5.7 ± 4 h |  |
| CNc1nc(N)nc2c1ncn2[C@@H]1O[C@H](COP(=O)(N[C@@H](C)C(=O)OC(C)C)Oc2ccccc2)[C@@H](O)[C@@]1(C)F.CNc1nc(N)nc2c1ncn2[C@@H]1O[C@H](COP(=O)(N[C@@H](C)C(=O)OC(C)C)Oc2ccccc2)[C@@H](O)[C@@]1(C)F.O=S(=O)(O)O (stereo partly drawn) [AT-527] |  |  |  |  |  |  |  |  |  | Fold more potent than sofosbuvir (HCV clinical isolates): up to 58 fold |
